Experimental data taken from ChEMBL document CHEMBL5303711, “ECBD screening data for assay EOS300108” (2023).
Calls of active or inactive are those of the source. No rule for the calls is given here.

Experiment: Cytotoxicity activity against human HepG2 cells assessed by CellTiter-Glo luminescent cell viability assay.
Assay type: toxicity, cell-based
Parameters: assay stage confirmatory assay, source tissue liver
Details: HepG2 cells, read-out: IC50 relative

Which CC50 does the source give for `Nc1ncnc2c1c(-c1cnc3[nH]ccc3c1)nn2C1CCCC1` here?
The CC50 was 1.6 µM (active).

Which CC50 does the source give for `CS(=O)(=O)CCNCc1ccc(-c2ccc3ncnc(Nc4ccc(OCc5cccc(F)c5)c(Cl)c4)c3c2)o1` here?
The CC50 was 6.1 µM (active).

With `Cc1ccc(Nc2ncc3c(n2)N(C)C(=O)N(c2cc(NC(=O)c4cccc(C(F)(F)F)c4)ccc2C)C3)cn1` as the compound, how does the CC50 read?
Its CC50 is 0.1 µM (active).

For `CC(=O)Nc1nc(C)c(-c2ccc(Cl)c(S(=O)(=O)NCCO)c2)s1`, which CC50 is on record?
Its CC50 is 4 µM (active).

With `CC(C)n1nc(-c2cc3cc(O)ccc3[nH]2)c2c(N)ncnc21` as the compound, how does the CC50 read?
Its CC50 is 2.6 µM (active).

With `O=C1Nc2ccccc2C2(CCN(CCc3ccc(C(F)(F)F)cc3)CC2)O1` as the compound, how does the CC50 read?
Its CC50 is 10.7 µM (active).

With `CN(C)CCCNC(=O)c1ccc(-c2cc(O)c3ncccc3c2)cc1` as the compound, how does the CC50 read?
Its CC50 is 8 µM (active).

Which CC50 does the source give for `CN(C)c1ccc(C(=O)NCCCCCCC(=O)NO)cc1` here?
The CC50 was 0.9 µM (active).

For `O=S(=O)(c1cccc2c(I)cccc12)N1CCCNCC1`, which CC50 is on record?
Its CC50 is 9.7 µM (active).

With `CCN1CCN(C(c2ccc(C(F)(F)F)cc2)c2ccc3cccnc3c2O)CC1` (stereo not drawn) as the compound, how does the CC50 read?
Its CC50 is 4.1 µM (active).

With `O=C(Nc1cccnc1)N1CCC(Cc2cccc(Oc3ccc(C(F)(F)F)cn3)c2)CC1` as the compound, how does the CC50 read?
Its CC50 is 12.7 µM (active).

Which CC50 does the source give for `CC(C)c1cnn2c(NCc3ccccc3)cc(NCCCCCCN)nc12` here?
Its CC50 is 9.3 µM (active).

With `COc1cc2c(NC3CCN(C4CCCCC4)CC3)nc(N3CCCN(C(C)C)CC3)nc2cc1OCCCN1CCCCC1` as the compound, how does the CC50 read?
The CC50 was 6.6 µM (active).

With `COc1cc2c(NC3CCN(CC4CCCCC4)CC3)nc(N3CCCN(C(C)C)CC3)nc2cc1OCCCN1CCCCC1` as the compound, how does the CC50 read?
Its CC50 is 1.1 µM (active).

With `O=C(c1ccc(Nc2nccc(-c3cc4ccccc4s3)n2)cc1)N1CCC(N2CCCC2)CC1` as the compound, how does the CC50 read?
The CC50 was 1.3 µM (active).

With `COc1cc2c(cc1Cc1cccc(Cl)c1F)c(=O)c(C(=O)O)cn2[C@H](CO)C(C)C` as the compound, how does the CC50 read?
Its CC50 is 10.2 µM (active).

For `COc1cc(C)c(Sc2cnc(NC(=O)c3ccc(CNC(C)C(C)(C)C)cc3)s2)cc1C(=O)N1CCN(C(C)=O)CC1` (stereo not drawn), which CC50 is on record?
Its CC50 is 7.5 µM (active).

With `COc1cc(OC2CCN(C)CC2)ccc1Nc1ncc2c(n1)n(C1CCCC1)c(=O)n2C` as the compound, how does the CC50 read?
Its CC50 is 5 µM (active).

Which CC50 does the source give for `COc1cc(Nc2cnc(C#N)c(O[C@H](C)CN(C)C)n2)ncc1-c1cnn(C)c1` here?
The CC50 was 10.4 µM (active).

Which CC50 does the source give for `Cc1cc(C)cc(C(=O)NOCCCCCC(=O)NO)c1` here?
The CC50 was 0.5 µM (active).

For `Fc1ccc(CNc2ncnc3ccc(F)cc23)cc1`, which CC50 is on record?
Its CC50 is 4.3 µM (active).

Which CC50 does the source give for `COc1ccc2c(c1)c(C1=C(c3c[nH]c4ccccc34)C(=O)NC1=O)cn2CCCN(C)C` here?
The CC50 was 4.7 µM (active).

With `CCOC(=O)[C@H](Cc1ccc([N+](=O)[O-])cc1)NC(=O)c1ccccc1` as the compound, how does the CC50 read?
The CC50 was 15.4 µM (active).

With `COc1cc2ncnc(Nc3cccc(Br)c3)c2cc1OC` as the compound, how does the CC50 read?
The CC50 was 6.7 µM (active).

Which CC50 does the source give for `CC(C)N(CCCNC(=O)Nc1ccc(C(C)(C)C)cc1)C[C@H]1O[C@@H](n2cc(Br)c3c(N)ncnc32)[C@H](O)[C@@H]1O` here?
Its CC50 is 10.1 µM (active).

For `CN[C@@H](C)C(=O)N[C@H](C(=O)N1CCC[C@H]1C(=O)N[C@H]1c2ccccc2C[C@H]1OCC#CC#CCO[C@@H]1Cc2ccccc2[C@@H]1NC(=O)[C@@H]1CCCN1C(=O)[C@@H](NC(=O)[C@H](C)NC)C1CCCCC1)C1CCCCC1`, which CC50 is on record?
The CC50 was 3.7 µM (active).

With `N#Cc1c(Oc2ccc(F)c(NC(=O)Cc3cccc(C(F)(F)F)c3)c2)ccc2nc(NC(=O)C3CC3)sc12` as the compound, how does the CC50 read?
Its CC50 is 0.4 µM (active).

With `c1ccc(Cn2c(-c3ccc(OC[C@H](C4CCNCC4)n4c(-c5ccccc5)nc5ccccc54)cc3)nc3ccccc32)cc1` as the compound, how does the CC50 read?
Its CC50 is 1.6 µM (active).

Which CC50 does the source give for `Cc1c2ccncc2c(C)c2c1[nH]c1ccccc12` here?
The CC50 was 1.4 µM (active).

Which CC50 does the source give for `COc1cc(-c2cc(-c3ccc(N4CCNCC4)cc3)cnc2C)cc(OC)c1OC` here?
Its CC50 is 9.1 µM (active).

Which CC50 does the source give for `CNc1nc(NCc2ccc(NS(C)(=O)=O)cc2Cl)cc(-c2ccccn2)n1` here?
The CC50 was 14.3 µM (inactive).

For `Cc1ccc2c(NS(=O)(=O)c3ccccc3Cl)cccc2c1Oc1ncccc1-c1ccnc(N[C@H]2CCCNC2)n1`, which CC50 is on record?
The CC50 was 5.2 µM (active).

With `O=C1/C(=C/c2ccc([N+](=O)[O-])cc2)CS(=O)(=O)C/C1=C\c1ccc([N+](=O)[O-])cc1` as the compound, how does the CC50 read?
Its CC50 is 0.1 µM (active).

Which CC50 does the source give for `CCN1CCN(Cc2ccc(C(=O)Nc3ccc(C)c(Oc4ccc5c(c4)CC(=O)N5)c3)cc2C(F)(F)F)CC1` here?
Its CC50 is 6.2 µM (active).

For `CN(C)C/C=C/C(=O)Nc1ccc(C(=O)Nc2cccc(Nc3ncc(Cl)c(-c4c[nH]c5ccccc45)n3)c2)cc1`, which CC50 is on record?
The CC50 was < 0.1 µM (active).

Which CC50 does the source give for `C[C@@H]1COCCN1c1cc(=O)n2c(n1)N(Cc1cncc(Cl)c1)[C@H](C(F)(F)F)CC2` here?
The CC50 was 14.5 µM (inactive).

Which CC50 does the source give for `CCNC(=O)C#Cc1ccc2c(c1)NC(=O)/C2=C(\Nc1ccc(CN(C)C)cc1)c1ccccc1` here?
The CC50 was < 0.1 µM (active).

With `CNc1ncc2cc(-c3ccc(-c4cccc(C)n4)cc3Cl)c(=O)n(C[C@H]3OC[C@H](N)CO3)c2n1` as the compound, how does the CC50 read?
The CC50 was 4.5 µM (active).

Which CC50 does the source give for `COc1ccccc1C(=O)Nc1cc2c(cc1N1CCNC[C@H]1C)n(C)c(=O)n2C` here?
Its CC50 is 16.9 µM (inactive).

With `Cc1cc(N2CCOCC2)cc2[nH]c(-c3c(NC[C@@H](O)c4cccc(Cl)c4)cc[nH]c3=O)nc12` as the compound, how does the CC50 read?
The CC50 was 2.3 µM (active).

With `C=CC(=O)Nc1ccc(CN(C(=O)Nc2c(Cl)c(OC)cc(OC)c2Cl)c2cc(Nc3ccc(N4CCN(C)CC4)cc3)ncn2)cc1` as the compound, how does the CC50 read?
Its CC50 is 4.7 µM (active).

For `CCOc1cc(/C=C2/C(=O)N(c3ccccc3)N=C2C)cc(Cl)c1OCC(=O)OC`, which CC50 is on record?
The CC50 was 12.3 µM (active).

With `CC(C)(C)C[C@H]1N[C@@H](C(=O)N[C@H]2CC[C@H](O)CC2)[C@H](c2cccc(Cl)c2F)[C@@]12C(=O)Nc1cc(Cl)ccc12` as the compound, how does the CC50 read?
The CC50 was 4.9 µM (active).

For `CC(C)(C)N1C(=O)C(Nc2ccc(N3CCCCC3)cc2)=C(c2ccccc2)S1(=O)=O`, which CC50 is on record?
The CC50 was 4.9 µM (active).

Which CC50 does the source give for `N#Cc1ccc(COC[C@H]2O[C@@H](n3c(NCc4ccc(Cl)c(Cl)c4)nc4c(N)ncnc43)[C@H](O)[C@@H]2O)cc1` here?
The CC50 was 3 µM (active).

Which CC50 does the source give for `C=CC(=O)Nc1ccc2ncnc(Nc3ccc(OCc4cccc(F)c4)c(Cl)c3)c2c1` here?
Its CC50 is 7.7 µM (active).

Which CC50 does the source give for `C=CCNC1=C2C[C@@H](C)C[C@H](OC)[C@H](O)[C@@H](C)/C=C(/C)[C@H](OC(N)=O)[C@@H](OC)/C=C\C=C(\C)C(=O)NC(=CC1=O)C2=O` here?
The CC50 was < 0.1 µM (active).

Which CC50 does the source give for `CC(C)(C)OC(=O)Nc1ccc(-c2cc(C(=O)NCCCCCCC(=O)NO)no2)cc1` here?
The CC50 was 0.7 µM (active).

With `CS(=O)(=O)c1cccc(CNc2nc(Nc3ccc4c(c3)CCC(=O)N4)ncc2C(F)(F)F)c1` as the compound, how does the CC50 read?
Its CC50 is 7.8 µM (active).

With `O=C(NCCCN1CCC2(CC1)OCc1ccccc12)[C@H]1CCCN1Cc1ccccc1` as the compound, how does the CC50 read?
The CC50 was 10.7 µM (active).

With `c1ccc2c(-c3cnn4cc(-c5ccc(N6CCNCC6)cc5)cnc34)ccnc2c1` as the compound, how does the CC50 read?
Its CC50 is 0.5 µM (active).

Which CC50 does the source give for `Cc1ccc(C(=O)N(CCCN)C(c2oc3cc(Cl)ccc3c(=O)c2Cc2ccccc2)C(C)C)cc1` (stereo not drawn) here?
The CC50 was 1.4 µM (active).

Which CC50 does the source give for `C[C@H]1CCC/C=C\[C@@H]2C[C@H](O)C[C@H]2[C@H](O)/C=C\C(=O)O1` here?
Its CC50 is < 0.1 µM (active).

For `COc1cc(C(=O)NC2CCN(C)CC2)c(F)cc1Nc1ncc2c(n1)N(C1CCCC1)CC(F)(F)C(=O)N2C`, which CC50 is on record?
The CC50 was 4.1 µM (active).

With `CNc1cc2c(Nc3cccc(Br)c3)ncnc2cn1` as the compound, how does the CC50 read?
The CC50 was 20.5 µM (inactive).

With `COc1cc2nc(N3CCCN(C)CC3)nc(NC3CCN(Cc4ccccc4)CC3)c2cc1OC` as the compound, how does the CC50 read?
Its CC50 is 0.9 µM (active).

For `COc1ccc(CNc2nc(N(CCO)CCO)nc3c2ncn3C(C)C)cc1`, which CC50 is on record?
The CC50 was 0.8 µM (active).
